In US9981983B2, “Thienopyranones as kinase inhibitors” (SignalRx Pharmaceuticals, Inc., priority 2008, dated 2018) one finds IC50 data, which are given here for 1 molecule.

What is called IC50 is the midpoint of a concentration-inhibition curve.

What all share (type): cell-based
The test system of experiment [1] is H1299 (Lung). In words: Cell proliferation MTS assay, H1299. The conditions noted are these: Homo sapiens, NCI-H1299, 72 hours. How it is done:
(§1) All cell lines were obtained from ATCC and cultured and plated according to ATCC recommendations. Cells were cultured in complete culture media containing 10% heat-inactivated fetal bovine serum (FBS, Mediatech, Inc.). For adherent cell lines, once cells reached 70% confluency, they were trypsinized and resuspended in phenol red free RPMI media (Mediatech, Inc.) plus 10% heat-inactivated FBS (assay buffer) and 100 μL aliquots were plated into each well of 96-well microtiter plates at a final density of 1,000-2,000 cells/well. Cells were incubated overnight at 37° C. in 5% CO2, and treated with test compounds on the next day. For suspension cell lines, cells were resuspended in assay buffer, plated into 96-well microtiter plates at a density of 10^4-10^5 cells/well/100 μL, and treatment was started on the same day. Cells were treated with vehicle (DMSO) and test compounds for 72 hours at concentration of 100, 70, 40, 20, 10, 5, 2.5, 1.25, 0.5 and 0.2 μM in four replicates at 37° C. in 5% CO2.
For orientation: Tetrazolium dyes change colour on reduction, which living cells bring about.

The test system of experiment [2] is HCT116 (Colon). In words: Cell proliferation MTS assay, HCT116. Conditions: Homo sapiens, HCT-116, 72 hours. How it is done: as §1
Experiment [3] concerns MCF7 (Breast). In words: Cell proliferation MTS assay, MCF7. The conditions noted are these: Homo sapiens, 72 hours. How it is done:
as §1

For experiment [4], the system named is HL60 (AML). In words: Cell proliferation MTS assay, HL60. The conditions noted are these: Homo sapiens, HL-60, 72 hours. The protocol:
as §1

In experiment [5] the test system is HUVEC (Endothelial-noncancer). The experiment can be described thus: Cell proliferation MTS assay, HUVEC. The conditions noted are these: Homo sapiens, 72 hours. The protocol:
as §1

Experiment [6] deals with pAKT in BT-474 cells. In words: pAKT status DM50, BT-474. Conditions: Homo sapiens; BT-474, breast cancer. How it is done: PC3 cells were obtained from the American Type Culture Collection (ATCC, Manassas, Va., Cat.# CRL-1435). Two million cells from the prostate cancer line PC3 were placed into 6 cm culture dishes and allowed to grow in complete RPMI 1640 media (Invitrogen, Carlsbad, Calif., Cat.#22400-105) with 10% fetal bovine serum (Invitrogen, Carlsbad, Calif., Cat.#10438-026). After this time period the cells were serum starved for 5 hours followed by application of the test compound. Test compound was added as a DMSO (dimethyl sulfoxide) solution such that the final DMSO concentration in the cell media was less than or equal to 0.2% by volume After 30 minutes of exposure the growth factor stimulant, human IGF-1 (PeproTech, Inc., Rocky Hill, N.J., Cat.#100-11), was added to a final concentration of 0.1 μg/ml in each well. After 30 minutes of IGF-1 exposure, cells were removed from the media and cell lysates were prepared using RIPA Lysis buffer (Upstate, Lake Placid, N.Y., Cat.#20-188), keeping on ice. The pAKT serine 473 level was measured in duplicate samples of the cell lysates using commercially available assays such as the Pathscan® Sandwich ELISA kit for Ser473 pAKT (Cell Signaling, Danvers, Mass., Cat.#7160). A SpectraMax Plus spectrophotometric plate reader (Molecular Devices, Sunnydale, Calif.) was used to measure the optical density signal for pAKT at 450 nm (OD450 nm). The pAKT OD450 nm readings were normalized by total protein amount in the cell lysates determined by standard methods.
Concentrations of test compounds required to inhibit IGF stimulated pAKT levels to 50% of maximum levels in PC3 cells (termed DM50 for decreased maximum 50%) were calculated by inputting the dose responses in the software package GraphPad Prism4 (GraphPad Software, Inc., San Diego, Calif.).
Several other cancer cell lines were obtained from ATCC and grown according to the supplier's recommendations and treated with test compounds. DM50 values listed in Table 6 below were obtained by the methods described in Example A: […]

Experiment [7] concerns H1299 cells. The experiment can be described thus: Cellular proliferation (Example B method), H1299. Conditions: Homo sapiens, NCI-H1299; H1299, non-small cell lung cancer. The protocol: PC3 cells were obtained from the American Type Culture Collection (ATCC, Manassas, Va., Cat.# CRL-1435) Two thousand cells from the prostate cancer line PC3 were placed in 50 μL of complete RPMI 1640 media (Invitrogen, Carlsbad, Calif., Cat.#22400-105) with 10% fetal bovine serum (Invitrogen, Carlsbad, Calif., Cat.#10438-026) into each well of 96 well cell culture plates in a hexaplicate sampling pattern. A 50 μL aliquot of test compound (prepared from stock test compounds in DMSO diluted into media) was added to the appropriate well such that the final concentrations of test compound were 200, 40, 8, 1.6, 0.32, 0.064, 0.0128, 0.00256, and 0 μM and the final DMSO concentration was less than or equal to 0.2%.
The plates were incubated for 72 hours 37° C. in an atmosphere of 5% CO2. At the end of this time a 10 μL aliquot of WST solution (Roche Applied Science, Mannheim, Germany) was added into each of the wells. Cells were exposed to the WST solution for 4 hours. A SpectraMax Plus spectrophotometric plate reader (Molecular Devices, Sunnydale, Calif.) was then used to measure the optical density at 450 nm (OD450 nm). Sigmoidal curves were drawn for the dose responses and IC50 values were calculated using the software package GraphPad Prism4 (GraphPad Software, Inc., San Diego, Calif.).
Several other cancer cell lines were obtained from ATCC and grown according to their recommendations and treated with test compounds to obtain the concentration of test compound that inhibited the cellular proliferation by 50% of no-treatment controls. These IC50 values (μM) are listed in Table 7 below obtained by the methods described in Example B: […]

For `O=c1cc(N2CCOCC2)oc2c(-c3ccc4c(c3)OCCO4)csc12` [Compound 28, 3-(2,3-dihydrobenzo[b][1,4]dioxin-6-yl)-5-morpholino-7H-thieno[3,2-b]pyran-7-one], the IC50 in experiment [1] amounted to 2430 nM; in experiment [2], 2200 nM; in experiment [3], 2270 nM; in experiment [4] it was 3060 nM; in experiment [5], 1230 nM; in experiment [6], 307 nM. Besides, it took 951 nM to reach half-maximal inhibition in experiment [7] (IC50).
